Assay results reported in patent US20120178124A1, “STEROL SIDE CHAIN-CLEAVING ENZYME PROTEIN AND USE THEREOF” (MITSUBISHI CHEMICAL CORPORATION, priority 2009, published 2012).

Columns and labels:
CYPSS204A = test: Conversion reaction of substrates by Escherichia coli expression strain BP215; type: cell-based, Sphingomonas subterranea NBRC 16086; details: strain BP215, 28° C., 5 hours
Procedure: The temperature conditions applied during the PCR were 95° C./5 min, 30 cycles of (98° C./30 sec, 60° C./30 sec, and 68° C./2 min), and 68° C./10 min.
Analysis conditions: Using Chromolith speed rod RP18e (50×4.6 mm) column, 50%→100% CH3CN gradient (0 to 3 min) and 100% CH3CN (3 to 8 min) were used as a mobile phase, and detection was carried out at a flow rate of 2 ml/min using CAD™ (Charged Aerosol Detection) and MS.

CYP11A = target: T1, CYP11A (Homo sapiens, UniProt P05108); test: Conversion reaction of substrates by CYP11A-expressing Escherichia coli; type: cell-based
T1 construct: A 1.45-kb CYP11A1 gene fragment amplified as a result of the above-described reaction; expressed in transfected cells; host or cells: Escherichia coli BL21(DE3), plasmid pCYP11A-ARX (strain BL21CYP11)
T1 sequence (P05108 40-521): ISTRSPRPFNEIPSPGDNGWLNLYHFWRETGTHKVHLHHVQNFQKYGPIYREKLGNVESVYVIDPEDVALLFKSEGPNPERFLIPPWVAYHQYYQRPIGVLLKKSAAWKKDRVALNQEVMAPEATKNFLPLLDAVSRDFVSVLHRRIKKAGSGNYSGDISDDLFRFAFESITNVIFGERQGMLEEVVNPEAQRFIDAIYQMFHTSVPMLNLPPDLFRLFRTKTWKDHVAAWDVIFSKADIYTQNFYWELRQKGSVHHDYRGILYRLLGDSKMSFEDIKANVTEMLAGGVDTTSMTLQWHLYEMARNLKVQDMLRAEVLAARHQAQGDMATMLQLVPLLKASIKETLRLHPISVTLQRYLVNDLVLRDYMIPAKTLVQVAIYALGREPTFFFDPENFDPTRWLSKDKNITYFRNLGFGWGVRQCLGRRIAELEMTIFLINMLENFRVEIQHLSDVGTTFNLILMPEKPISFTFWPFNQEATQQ
Procedure: The Escherichia coli expression strain BP215 was inoculated into 2 ml of an M9 mix medium (Na2HPO4: 0.68%, KH2PO4: 0.3%, NaCl: 0.05%, NH4C;: 0.01%, Casamino acid: 1%, D-Glucose: 0.4%, CaCl2: 0.1 mM, MgCl2: 1 mM, Thiamine: 0.002%, FeSO4: 0.1 mM, Carbenicillin: 0.005%), and it was then subjected to shaking culture at 30° C. for 17 hours, so as to obtain pre-culture solution. 0.25 ml of this pre-culture solution was inoculated into 25 ml of the main culture medium (Na2HPO4: 0.68%, KH2PO4: 0.3%, NaCl: 0.05%, NH4Cl: 0.01%, Casamino acid: 1%, CaCl2: 0.1 mM, MgCl2: 1 mM, Thiamine: 0.002%, FeSO4: 0.1 mM, Carbenicillin: 0.005%, Overnight Express™ solution: 7%, 5-Aminolevlic acid: 0.008%) using Overnight Express™ Autoinduction System (Novagen Cat. No. 71300-4), and it was then subjected to shaking culture at 25° C. for 24 hours. 5 ml of the obtained main culture solution was centrifuged (3500 rpm, 10 minutes) to obtain cell mass, and 1 ml of CV2 buffer (50 mM (pH) potassium phosphate buffer containing glycerol: 2%, carbenicillin: 0.005%, and isopropyl β-D-1-thiogalactopyranoside: 0.1 mM) was added to the obtained cell mass. Thereafter, 0.01 ml of the methanol solution of 1% 4-cholesten-3-one and 0.02 ml of an aqueous solution of 25% methyl-β-cyclodextrin were added to the mixed solution, and the obtained mixture was then shaken at 28° C. for 5 hours for the reaction. After completion of the reaction, 4 ml of methanol was added to the reaction solution, and they were then fully mixed. The obtained mixture was centrifuged, and the upper layer was then analyzed by HPLC.
A commercially available human testis cDNA (Origene Technologies, Inc.) was used as a template, and a CYP11A1 gene was amplified by PCR using a primer CYP11A-1F (SEQ ID NO: 19) and a primer CYP11A-2R (SEQ ID NO: 20), and also using KOD plus polymerase (TOYOBO Co., Ltd.). The temperature conditions applied during the PCR were 94° C./3 min, 30 cycles of (94° C./30 sec, 55° C./60 sec, and 72° C./90sec), and 72° C./5 min.
A 1.45-kb CYP11A1 gene fragment amplified as a result of the above-described reaction was purified using QIAquick PCR purification Kit (manufactured by QIAGEN), and it was then digested with Nde I and Spe I. Thereafter, the digest was ligated to Escherichia coli expression vector pT7NS-camAB, using T4 DNA ligase, and Escherichia coli DH5α was then transformed with the obtained expression vector, so as to construct a plasmid pCYP11A-camAB. Subsequently, using T4 DNA ligase, the previously prepared bovine-derived adrenodoxin reductase protein-adrenodoxin gene (adr-adx) fragment was inserted into and ligated to each of the Spe I and Bam HI sites of the above-described plasmid, and Escherichia coli DH5a was then transformed with the obtained plasmid, so as to construct plasmid pCYP11A-ARX. Thereafter, Escherichia coli BL21(DE3) was transformed with the thus constructed plasmid, and the obtained cell strain was named as BL21CYP11. The used adx-adr fragment was amplified by PCR with a plasmid pKARX (Sawada et. al. Eur. J. Biochem. 265, 950-956,1999) as a template, using primer bAdxR-1F (SEQ ID NO: 21) and primer bAdx-2R (SEQ ID NO: 22), and also using KOD plus polymerase (manufactured by TOYOBO Co., Ltd.). The temperature condition applied during the PCR were 94° C./3 min, 25 cycles of (94° C./30 sec, 60° C./30 sec, and 72° C./120sec), and 72° C./5 min.
Each substrate was subjected to the same reaction as that of Example 6, separately, and the reaction solution was then subjected to liquid separation using 1 ml of ethyl acetate. The reaction product and the substrate were extracted, and were then analyzed by HPLC.

CC(C)CCC[C@@H](C)[C@H]1CC[C@H]2[C@@H]3CCC4=CC(=O)CC[C@]4(C)[C@H]3CC[C@]12C [4-cholesten-3-one]
accumulated amount of side-chain cleavage product (CYPSS204A): 78.0 mg/L
added substrate remained (CYPSS204A): not detected
Conversion rate (CYPSS204A; to progesterone, pregnenolone or 7-dehydropregnenolone): 78%
added substrate remained (CYP11A; same reaction as Example 6): 100%
Conversion rate (CYP11A; same reaction as Example 6 (28° C., 5 hours)): 0%
